The values below are quoted from earlier work in patent US20050181001A1, “Topical formulation for insect repellents” (priority 2003, published 2005).

Series [1] deals with mosquitoes. Particulars: oral.
For series [2], the system named is mosquitoes.

SMILES strings stand for the structures.

For `Cc1ncc(C[n+]2csc(CCO)c2C)c(N)n1` [thiamine], the “time before the odor fully saturates the skin and becomes effective” value with mosquitoes [1] is given as “up to 2 weeks”. Also, the “reduction of mosquito bites” value in the series with mosquitoes [1] (25 to 50 mg three times per day) is listed as “effective in reducing mosquito bites”.

For the compound `CC1=COC(=O)C2C(C)CCC12` (stereo not drawn) [nepetalactone], the “effectiveness at repelling mosquitoes relative to DEET” value in the series with mosquitoes [2] is on record as “more effective at repelling mosquitoes than DEET”.
